Measurements reported in patent US20230010299A1, “HETEROCYCLIC TRPML1 AGONISTS” (LIBRA THERAPEUTICS, INC., priority 2019, published 2023).

Columns and labels:
TRPML1 [1] = target: T1, TRPML1 (Homo sapiens, UniProt Q9GZU1); assay: Cellular TRPML1 assay (FLIPR TETRA, GCaMP6f calcium read-out); assay type: cell-based; conditions: HEK T-REx/GCaMP6f/TRPML1 cells; Ca2+ response over 300 s, normalized to ML-SA1 50 μM; Ca2+ free or Optimem condition not given; read-out: Ec50 (Activity of TRPML1 agonists)
T1 construct: expressed in transfected cells
T1 sequence (Q9GZU1 whole entry): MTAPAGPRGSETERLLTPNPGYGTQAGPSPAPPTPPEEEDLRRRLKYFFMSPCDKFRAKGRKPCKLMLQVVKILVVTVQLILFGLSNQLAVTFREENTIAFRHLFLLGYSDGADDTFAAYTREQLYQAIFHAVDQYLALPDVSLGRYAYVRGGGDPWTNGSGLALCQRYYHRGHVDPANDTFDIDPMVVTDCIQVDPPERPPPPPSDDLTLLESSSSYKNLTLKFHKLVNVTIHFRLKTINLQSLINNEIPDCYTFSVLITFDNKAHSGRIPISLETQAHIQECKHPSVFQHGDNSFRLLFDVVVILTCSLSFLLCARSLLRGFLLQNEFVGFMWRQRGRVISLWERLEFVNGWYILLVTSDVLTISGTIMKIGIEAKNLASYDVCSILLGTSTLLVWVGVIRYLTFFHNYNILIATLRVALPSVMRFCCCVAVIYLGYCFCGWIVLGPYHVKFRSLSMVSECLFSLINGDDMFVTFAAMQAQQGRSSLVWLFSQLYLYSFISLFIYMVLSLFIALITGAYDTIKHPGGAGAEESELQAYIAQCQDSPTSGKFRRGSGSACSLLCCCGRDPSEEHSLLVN
Description: Buffers and reagents • PBS (D-PBS without calcium and magnesium; EuroClone) • Trypsin (Trypsin 0.05%, EDTA 0.02% in PBS; EuroClone) • DMSO (Sigma) • Ca^2+ free Tyrode's buffer: in-house solution (130 mM NaCl, 5 mM KCl, 1 mM MgCl2, 5 mM NaHCO3, 20 mM HEPES in water at pH 7.4; sterile filtered). • Opti-MEM (Gibco) • Agonist: ML-SA1 (Sigma); stock: 60 mM in DMSO, stored at −20° C. • Blocker: ML-SI3 (in house synthesis); stock: 20 mM in DMSO, stored at −20° C.
The final clone for the TRPML1 assay is HEK T-REx/GCaMP6f/TRPML1.
GCaMP6f is a genetically encoded calcium indicator that is stably expressed in this cell line and used as a fluorescent read-out.
Experiments are performed in 384 MTP format. Cells are seeded at 15000 cells/well either in 25 μl/well of growth medium or in 20 μl/well of Optimem+0.5% FBS without selection antibiotics. Twenty-four hours later, cells are assayed for the response to various compounds using the Ca^2+ sensitive GCaMP6f protein stably expressed in the cells as readout.
The experiment is performed in a 384-well format according to the following procedures for either Ca^2+ free or Optimem conditions: • Ca^2+ free condition (in absence of extracellular Ca^2+): • 24 h after seeding, pre-incubate the cells at room temperature for about 10′. • Then remove the culture medium and replace it with 20 μL of Ca^2+ free Tyrode's buffer. • Start the experiment at the FLIPR^TETRA by injecting 10 μL/w of 3× concentrated test compounds and controls in Ca^2+ free Tyrode's buffer. Monitor the kinetic response over a period of 300 seconds. • Final DMSO concentration: 0.5% • Optimem condition (in presence of extracellular Ca^2+): • 24 h after seeding, pre-incubate the cells at room temperature for about 10′. • Start the experiment at the FLIPR^TETRA by injecting 10 μL/w of 3× concentrated test compounds and controls in Ca^2+ free Tyrode's buffer. Monitor the kinetic response over a period of 300 seconds. • Final DMSO concentration: 0.5%
Data from FLIPR^TETRA measurements are analyzed with the Genedata Screener® software.
Stimulator controls (Col 2): injection of ML-SA1 EC100 (50 μM) in alternated wells positions
Neutral controls (Col 2): injection of 0 mM Ca^2+ free Tyrode's buffer in alternated wells positions.
Test wells (Col 3-22): test compounds dose response curve from either 100 μM with 1:2 dilution steps or from 50 μM with 1:3.16 dilution steps.

TRPML1 [2] = target: T1, TRPML1; assay: TRPML1 automated patch-clamp (QPatch 16X); assay type: cell-based; conditions: HEK T-REx/GcaMP6f/TRPML1 cells, current with compound/current in vehicle, extracellular pH 4.6
Description: TRPML1—Automated Patch-Clamp
HEK T-REx/GcaMP6f/TRPML1 cells were cultured in DMEM High Glucose (Lonza BioWhittaker cat. BE12-604F/U1; 500 mL) supplemented with Fetal Bovine Serum TET-FREE (Euroclone cat. EC S0182L; 50 mL, Penicillin-Streptomycin (BioWhittaker, cat. DE17-602E; 5 mL of 100× Solution), G418 (Sigma, cat. G8168; 0.25 mg/ml) and Zeocyn (InvivoGen, cat. ant-zn-1; 50 μg/ml).
HEK T-REx/GcaMP6f/TRPML1 cells were seeded 48 or 72 hours before experiment, at a concentration of 8*10^6/4*10^6 cells onto a T225 flask. Just before the experiments, cells were washed twice with D-PBS w/o Ca^2+/Mg^2+ (Euroclone cat. ECB4004L) and detached from the flask with trypsin-EDTA (Sigma cat. T4174; diluted 1/10). Cells were then re-suspended in the suspension solution: 25 mL EX-CELL ACF CHO medium(Sigma cat. C5467); 0.625 mL HEPES (Sigma cat. H0887); 0.25 mL of 100× Penicillin/Streptomycin (Euroclone cat. ECB3001D), 0.1 mL of Soybean Trypsin Inhibitor 10 mg/mL (Sigma cat. T6522) and placed on the QPatch 16X.
Dilution from stock were prepared just before the experiments in the extracellular solution (0.25% final DMSO concentration). DMSO solution was obtained from AppliChem (cat. A3672)
Patch Clamp Solutions: • Intracellular solution (mM): 120 CsMeSO3, 4 NaCl, 2 MgCl2, 10 EGTA, 20 HEPES, 2 Mg-ATP (pH 7.2 with CsOH). • Extracellular solution (mM): 140 NaGluconate, 5 KCl, 1 MgCl2, 2 CaCl2), 10 Glucose, 10 MES (pH 4.6 with HCl).
Patch Clamp Analysis—QPatch 16X
For the voltage clamp experiments on TRPML1, data were sampled at 5 KHz. After establishment of the seal and the passage in the whole cell configuration, the cells were held at −20 mV and the TRPML1 current was evoked using the voltage protocol illustrated in FIG. 2, applied every 5 sec. (50 ms at −20 mV; 20 ms at −120 mV, 1000 ms ramp from −120 to […]; 20 ms at +40 mV, and back to −20 mV); in the absence (vehicle period, i.e. 0.25% DMSO) and in the presence of increasing concentrations (3) of the compound under investigation.
Agonists: For data collection, the Sophion proprietary software was used and the analysis was performed off-line using Excel and GraphPad Prism (V 8.00). Results are reported in Table 6, expressed as TRPML1 current fold increase evoked by the compound under investigation (i.e. current in the presence of the compound/current in vehicle).

EC50 (TRPML1 [1])	SMILES	other results
1.7 µM	CN(C)S(=O)(=O)c1ccc(S(=O)(=O)NC2CCCCC2N2CCC(Oc3ccccc3)CC2)cc1 (single isomer, unassigned) [Example 63, N1,N1-dimethyl-N4-[2-(4-phenoxypiperidin-1-yl)cyclohexyl]benzene-1,4-disulfonamide]	Qpatch Assay TRPML1 agonism Current fold increase Mean ± SEM (n) (TRPML1 [2]; 0.3 μM compound): 0.042 ± 0.153 (2); Qpatch Assay TRPML1 agonism Current fold increase Mean ± SEM (n) (TRPML1 [2]; 3.0 μM compound): 0.86 ± 0.60 (2); Qpatch Assay TRPML1 agonism Current fold increase Mean ± SEM (n) (TRPML1 [2]; 30 μM compound): 4.3 ± 0.9 (2)
2.1 µM	CN(C)S(=O)(=O)c1ccc(S(=O)(=O)Nc2ccccc2N2CCC(Oc3ccccc3)CC2)cc1 [Example 24, N1,N1-dimethyl-N4-[2-(4-phenoxypiperidin-1-yl)phenyl]benzene-1,4-disulfonamide]	Qpatch Assay TRPML1 agonism Current fold increase Mean ± SEM (n) (TRPML1 [2]; 0.3 μM compound): 4.6 ± 1.8 (4); Qpatch Assay TRPML1 agonism Current fold increase Mean ± SEM (n) (TRPML1 [2]; 3.0 μM compound): 168.8 ± 96.1 (4); Qpatch Assay TRPML1 agonism Current fold increase Mean ± SEM (n) (TRPML1 [2]; 30 μM compound): 687.7 (1)
36.4 µM	Cc1noc(C)c1S(=O)(=O)Nc1ccccc1N1CCN(C(=O)OC(C)(C)C)CC1 [Example 64, tert-butyl 4-(2-((3,5-dimethylisoxazole)-4-sulfonamido)phenyl)piperazine-1-carboxylate]	
22.1 µM	CCCOC1CCN(c2ccccc2NS(=O)(=O)c2ccc(C)cc2C)CC1 [Example 66, 2,4-dimethyl-N-(2-(4-propoxypiperidin-1-yl)phenyl)benzenesulfonamide]	
37.8 µM	CCCOC1CCN(c2ccccc2NS(=O)(=O)c2cc(C)oc2C)CC1 [Example 67, 2,5-dimethyl-N-(2-(4-propoxypiperidin-1-yl)phenyl)furan-3-sulfonamide]	
17.3 µM	CCC(=O)N1CCN(c2ccccc2NS(=O)(=O)c2ccc(S(=O)(=O)N(C)C)cc2)CC1 [Example 71, N1,N1-dimethyl-N4-[2-(4-propanoylpiperazin-1-yl)phenyl]benzene-1,4-disulfonamide]	
3 µM	CN1CCc2cc(S(=O)(=O)Nc3ccccc3N3CCN(C(=O)OC(C)(C)C)CC3)ccc21 [Example 72, tert-butyl 4-(2-((l-methylindoline)-5-sulfonamido)phenyl)piperazine-1-carboxylate]	
8.8 µM	CN(C)S(=O)(=O)c1ccc(S(=O)(=O)Nc2ccccc2N2CCN(C(=O)c3cccs3)CC2)cc1 [Example 79, N1,N1-dimethyl-N4-{2-[4-(thiophene-2-carbonyl)piperazin-1-yl]phenyl}benzene-1,4-disulfonamide]	
18.9 µM	Cc1ncsc1C(=O)N1CCN(c2ccccc2NS(=O)(=O)c2ccc(S(=O)(=O)N(C)C)cc2)CC1 [Example 80, N1,N1-dimethyl-N4-{2-[4-(4-methyl-1,3-thiazole-5-carbonyl)piperazin-1-yl]phenyl}benzene-1,4-disulfonamide]	
11.1 µM	CN(C)S(=O)(=O)c1ccc(S(=O)(=O)Nc2ccccc2N2CCN(C(=O)Cc3cccs3)CC2)cc1 [Example 81, N1,N1-dimethyl-N4-(2-{4-[2-(thiophen-2-yl)acetyl]piperazin-1-yl}phenyl)benzene-1,4-disulfonamide]	
5.7 µM	CN(C)S(=O)(=O)c1ccc(S(=O)(=O)Nc2ccccc2N2CCC(Oc3cccnc3)CC2)cc1 [Example 86, N1,N1-dimethyl-N4-{2-[4-(pyridin-3-yloxy)piperidin-1-yl]phenyl}benzene-1,4-disulfonamide]	
18.5 µM	CCCNC(=O)C1CCN(c2ccccc2NS(=O)(=O)c2ccc(S(=O)(=O)N(C)C)cc2)CC1 [Example 87, 1-{2-[4-(dimethylsulfamoyl)benzenesulfonamido]phenyl}-N-propylpiperidine-4-carboxamide]	
3.2 µM	CN(C)S(=O)(=O)c1ccc(S(=O)(=O)Nc2ccccc2N2CCC(Oc3ncccn3)CC2)cc1 [Example 89]	
10.7 µM	Cc1ccc(S(=O)(=O)Nc2ccccc2N2CCN(C(=O)OC(C)(C)C)CC2)c2cccnc12 [Example 95, tert-butyl 4-(2-((8-methylquinoline)-5-sulfonamido)phenyl)piperazine-1-carboxylate]	
2.8 µM	Cc1cc(S(=O)(=O)Nc2ccccc2N2CCC(Oc3ccccn3)CC2)c(C)s1 [Example 97, 2,5-dimethyl-N-(2-(4-(pyridin-2-yloxy)piperidin-1-yl)phenyl)thiophene-3-sulfonamide]	
3.3 µM	Cc1ccc(S(=O)(=O)Nc2ccccc2N2CCC(Oc3ccccn3)CC2)cn1 [Example 98, 6-methyl-N-(2-(4-(pyridin-2-yloxy)piperidin-1-yl)phenyl)pyridine-3-sulfonamide]	
6.8 µM	CN(C)S(=O)(=O)c1ccc(S(=O)(=O)Nc2ccccc2N2CCOC(c3ccccc3)C2)cc1 (stereo not drawn) [Example 100, N1,N1-dimethyl-N4-(2-(2-phenylmorpholino)phenyl)benzene-1,4-disulfonamide]	
4 µM	CN(C)S(=O)(=O)c1ccc(S(=O)(=O)Nc2ccccc2N2CCOC(Cc3ccccc3)C2)cc1 (stereo not drawn) [Example 101, N1-(2-(2-benzylmorpholino)phenyl)-N4,N4-dimethylbenzene-1,4-disulfonamide]	
14.8 µM	CC(C)N(C(=O)c1ccc(S(C)(=O)=O)cc1)c1ccccc1N1CCC(Oc2cnccn2)CC1 [Example 103, N-isopropyl-4-(methylsulfonyl)-N-(2-(4-(pyrazin-2-yloxy)piperidin-1-yl)phenyl)benzamide]	
18 µM	COC(=O)C1CCN(c2ccccc2NS(=O)(=O)c2ccc(S(=O)(=O)N(C)C)cc2)CC1 [Example 105, methyl 1-(2-((4-(N,N-dimethylsulfamoyl)phenyl)sulfonamido)phenyl)piperidine-4-carboxylate]	
8.6 µM	CN(C)S(=O)(=O)c1ccc(S(=O)(=O)Nc2ccccc2N2CCC(Oc3ccncc3)CC2)cc1 [Example 106, N1,N1-dimethyl-N4-(2-(4-(pyridin-4-yloxy)piperidin-1-yl)phenyl)benzene-1,4-disulfonamide]	
